“And” between values parts separate entries of the source, which are not always exact repeats. Equal entries are not always repeated.
How the values were obtained:
5-oxo-L-prolinase [1] = target: T1, 5-oxo-L-prolinase (Rattus norvegicus, UniProt P97608); test: Inhibition of utilization of 5-oxo-L-proline (glutamate formation) by the purified enzyme; type: biochemical; settings: 1 mM 5-oxo-L-proline
T1 construct: 5-Oxo-L-prolinase was isolated from rat kidney and freed of 5-oxoproline by gel filtration; from tissue; host or cells: rat kidney
T1 sequence (P97608 1-1288): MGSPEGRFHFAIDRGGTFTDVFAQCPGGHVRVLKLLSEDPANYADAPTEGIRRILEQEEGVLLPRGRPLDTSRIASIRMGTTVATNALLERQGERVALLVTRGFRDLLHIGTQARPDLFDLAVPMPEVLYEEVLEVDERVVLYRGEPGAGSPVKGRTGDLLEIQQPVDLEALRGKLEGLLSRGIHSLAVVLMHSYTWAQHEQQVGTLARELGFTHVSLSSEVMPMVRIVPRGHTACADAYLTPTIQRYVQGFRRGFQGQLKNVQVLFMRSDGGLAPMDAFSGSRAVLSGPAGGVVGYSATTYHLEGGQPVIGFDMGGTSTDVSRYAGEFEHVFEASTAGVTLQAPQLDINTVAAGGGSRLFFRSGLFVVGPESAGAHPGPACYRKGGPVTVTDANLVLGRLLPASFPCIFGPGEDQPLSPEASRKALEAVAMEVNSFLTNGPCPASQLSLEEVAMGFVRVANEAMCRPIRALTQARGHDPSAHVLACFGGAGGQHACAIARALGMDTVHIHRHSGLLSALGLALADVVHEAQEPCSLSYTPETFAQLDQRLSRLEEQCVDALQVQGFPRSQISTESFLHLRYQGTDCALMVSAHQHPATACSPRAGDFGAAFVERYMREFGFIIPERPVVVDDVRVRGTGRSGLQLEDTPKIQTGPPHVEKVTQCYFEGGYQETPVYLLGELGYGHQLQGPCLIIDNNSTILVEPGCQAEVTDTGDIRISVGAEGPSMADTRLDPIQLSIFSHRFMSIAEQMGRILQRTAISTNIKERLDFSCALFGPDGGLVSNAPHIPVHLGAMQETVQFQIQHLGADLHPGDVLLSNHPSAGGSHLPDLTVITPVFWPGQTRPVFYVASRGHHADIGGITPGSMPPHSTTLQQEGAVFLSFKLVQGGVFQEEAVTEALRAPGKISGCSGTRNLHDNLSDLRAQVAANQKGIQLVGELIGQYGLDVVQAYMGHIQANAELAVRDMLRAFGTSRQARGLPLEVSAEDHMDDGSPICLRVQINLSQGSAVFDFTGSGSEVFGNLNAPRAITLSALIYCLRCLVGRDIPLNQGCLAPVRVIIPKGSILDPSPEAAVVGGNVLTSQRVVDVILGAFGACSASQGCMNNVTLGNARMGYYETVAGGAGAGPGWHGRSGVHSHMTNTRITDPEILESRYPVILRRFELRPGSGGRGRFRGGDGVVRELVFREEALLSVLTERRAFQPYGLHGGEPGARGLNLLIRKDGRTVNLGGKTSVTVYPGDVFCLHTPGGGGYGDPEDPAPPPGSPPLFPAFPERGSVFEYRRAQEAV
Experimental: (§1) In the experiments the reaction mixtures were made up to contain (final volume 0.5 ml) 100 mM Na Hepes (Na salt of N-2-hydroxyethylpiperizine-N'-2ethanesulfonic acid) buffer (pH 8.0), 150 mM KCl, 8 mM MgCl2, 2 mM phosphoenolpyruvate, 5 mM ATP (adenosine triphosphate), pyruvate kinase, in excess, 20 micrograms of 5-oxoprolinase, and the substrate as indicated.
(§2) The L-and D-isomers of 2-oxothiazolidine-4-carboxylate were synthesized by the method set out in Kaneko et al, Bull, Chem. Soc. (Japan) vol. 37, pp. 242-4 (1964) as modified by the method of Shah et al, Cancer Research vol. 39, pp. 3942-7 (1979). 5-Oxo-L-prolinase was isolated from rat kidney and freed of 5-oxoproline by gel filtration. Other chemicals and materials were obtained commercially.
(§3) After incubation ofr 30 min. at 37° C., the reaction mixtures were treated with 0.1 volume of 1 M HCl, and placed at 0° C. for 5 min.; and an equivalent volume of 1 M 2-amino-2-hydroxylmethyl-1,3,-propanediol was added. Portions were analyzed for amino acids by use of a Durrum Model 500 amino acid analyzer. Cysteine was also determined in some experiments by reaction with 5,5'-dithiobis (2-initrobenzoate) (DTNB).
Energy for the reaction is supplied by the cleavage of ATP. […] The ratio of ADP to cysteine produced increased with time due undoubtedly to the loss of cysteine due to oxidation.

hepatic glutathione = test: Hepatic glutathione level after injection; type: in vivo, mice; settings: for hepatic glutathione level relative to controls: mice fasted overnight, 6.5 mmol/kilo intraperitoneally (D-isomer: equivalent doses)
Experimental: The effect of injecting mice with L-2-oxothiazolidine-4-carboxylate on the level of hepatic gluathione was studies. […] The maximal effect was observed about 4 hours after injection. […] These findings are indicative of in vivo formation of cysteine after administration of L-2- oxothiazolidine-4-carboxylate.
Mice fasted overnight were injected intraperitoneally with NaCl (controls; dashed line) or with Na L-2-oxothiazolidine-4-carboxylate (6.5 mmol/kilo). At intervals, the mice were sacrificed and the excised liver was homogenized in 5 volumes of 1% picric acid. After centrifugation, the protein-free supernatant solutions were analyzed for glutathione by the method of Tietze, Anal. Biochem 27, 502-22(1969). Analyses were carried out in duplicate. In a number of instances, these values were checked by the 2-vinylpyridine procedure of Griffith, Anal. Biochem. 106; 207-12(1980); good agreement between the two methods was observed. In the figure, the points are mean values and the bars indicate the average deviation from the mean. The numbers in parentheses give the number of animals used. The value for the controls was 4.40±0.9 umol/g.

5-oxo-L-prolinase [2] = target: T1, 5-oxo-L-prolinase; test: Action of 5-oxo-L-prolinase on substrates (products formed); type: biochemical; settings: for Reaction on incubation with 5-oxo-L-prolinase: in the presence of ATP; for Products Formed: ADP: 5 mM ATP, 30 min at 37° C., pyruvate kinase-lactate dehydrogenase coupled assay
Experimental: as §1, §2, §3

5-oxoproline metabolism [3] = settings: previous studies of the inventors; cited from earlier work
metabolism of glutamate = test: In vivo metabolism of L-[14C]glutamate (respiratory 14CO2); settings: mice, 2.5 mmol/kilo intraperitoneally
Experimental: (§4) The in vitro results showing that L-2-oxothiazolidine-4-carboxylate inhibits utilization of 5-oxoproline were confirmed by in vivo experiments. In the latter, animals were injected with 5-oxo-L-[^14 C] proline and the respiratory [^14 CO2 ] produced was collected and measured for several hours. […] However, L-2- oxothiazolidine-4-carboxylate is a much more efficient inhibitor.
(§5) FIG. 3depicts the inhibition of 5-oxoproline metabolism by L-2- oxothiazolidine-4-carboxylate. Mice fasted overnight were injected intraperitoneally with NaCl (Curve 1; open symbols; controls) or with Na L-2-oxothiazolidine-4-carboxylate (2.5 mmol/kilo) (Curve 2; closed symbols). After 10 min., the mice were injected subcutaneously with 5-oxo-L-[^14 C] proline (A) or with L-[^14 C] glutamate (B) (0.02 mmol; 1.1×10^6 cpm). The mice were then placed in metabolic chambers and the respiratory CO2 was collected in ethanolamine/methanol, 1:4 (vol/vol). In A, each curve represents the results on 3 animals; the points are mean values and the bars represent standard deviations from the mean. In B, each curve represents the average of closely-agreeing results obtained from 2 animals.

tissue cysteine = test: Tissue/liver cysteine after administration; type: in vivo, mice
5-oxoproline metabolism [4] = test: In vivo inhibition of 5-oxoproline metabolism (respiratory 14CO2 after 5-oxo-L-[14C]proline); design: species or system mice
Experimental: as §4, §5

liver glutathione = test: Hepatic glutathione in mice depleted of glutathione (acetoaminophenol); type: in vivo
Experimental: Administration of this compound therefore provides a way of getting cysteine into cells. One cannot give cysteine itself without complications since this amino acid is toxic extracellularly. However, when the L-oxothiazolidine compound is injected it enters the cell where it is split giving rise to cysteine within the cell. In a number of clinical situations, for example, after poisoning with excessive pain-killing drugs, e.g., those containing active ingredients known as N-acetyl-para-aminophenol, paracetamol, and acetaminophen, the liver glutathione levels decrease markedly. When cysteine is supplied to liver cells, additional glutathione can be synthesized and thus serve usefully in detoxifying the offending drug. Therefore, L-2-oxothiazolidine-4-carboxylate serves as an intracellular delivery system for cysteine and has potential as a therapeutic agent in situations in which there is depletion of liver glutathione. After acetoaminophenol is given to experimental animals such as mice, the liver glutathione declines rapidly because it is extensively utilized by reaction with the drug. […] For human treatment the L-isomer, preferably in the form of its neutral salt is administered directly into the gastro-intestinal tract or introduced intravenously.

## O=C1N[C@@H](C(=O)O)CS1 [D-2-oxothiazolidine-4-carboxylate]
5-oxo-L-prolinase [1]; same conditions
  inhibition of glutamate formation (in words): did not inhibit glutamate formation
Hepatic glutathione
  hepatic glutathione level relative to controls: No such stimulation was observed
5-oxo-L-prolinase [2]
  Reaction on incubation with 5-oxo-L-prolinase: No reaction was observed
5-oxo-L-prolinase [2]; substrate 5 mM
  Products Formed: ADP: 96 nmol
5-oxo-L-prolinase [2]; substrate 5 mM, after reduction with KBH4 and reaction with iodoacetamide, footnote: less than 20 nmol
  Products Formed: Amino Acid: 0 nmol

## O=C1NC[C@@H](C(=O)O)N1 [L-2-imidazolidone-4-carboxylate]
5-oxoproline metabolism [3]
  in vivo metabolism of 5-oxoproline: markedly inhibits
5-oxo-L-prolinase [2]; substrate 2 mM
  Products Formed: ADP: 930 nmol
5-oxo-L-prolinase [2]; substrate 2 mM, footnote: less than 5 nmol
  Products Formed: Amino Acid: 0 nmol

## O=C1CC[C@@H](C(=O)O)N1 [5-Oxo-L-proline, 5-oxo-L-proline]
5-oxo-L-prolinase [2]; compared with the L-isomer
  calculated Vmax value: higher than that found for the L-isomer
5-oxo-L-prolinase [2]; substrate 2 mM
  Products Formed: ADP: 924 nmol
5-oxo-L-prolinase [2]; substrate 2 mM, as glutamate
  Products Formed: Amino Acid (as glutamate): 916 nmol

## O=C1N[C@H](C(=O)O)CS1 [L-2-oxothiazolidine-4-carboxylate]
Metabolism of glutamate
  effect on the metabolism of glutamate: does not have a significant effect
5-oxo-L-prolinase [1]; inhibitor 1 mM
  inhibition at 1000 µM: 73%
5-oxo-L-prolinase [1]; inhibitor 5 mM
  inhibition at 5000 µM: 92%
5-oxo-L-prolinase [1]; inhibitor 10 mM
  inhibition at 10000 µM: 97%
Tissue cysteine; administration to animals
  cysteine content of tissues: increase in the cysteine content of tissues, especially the liver
Tissue cysteine; amino acid analysis after dithiothreitol reduction and 2-vinylpyridine derivatization
  free cysteine in acid extracts of the livers: No free cysteine was detected
5-oxoproline metabolism [4]; mice, 2.5 mmol/kilo intraperitoneally 10 min before label
  formation of respiratory 14CO2 from 5-oxo-L-[14C]proline: marked decrease
5-oxoproline metabolism [4]; on a molar basis
  in vivo inhibitory activity relative to L-2-imidazolidone-4-carboxylate: at least four times more active
5-oxoproline metabolism [4]; treated animals, none found in the urine of the controls
  injected 5-oxo-L-[14C]proline dose excreted in urine: about 16 % of the injected dose
Liver glutathione; mice, given even two hours after the drug
  liver glutathione after acetoaminophenol: an increase in liver glutathione occurs
Liver glutathione; mouse, in vivo
  hepatic glutathione levels in mice depleted of hepatic glutathione: restoration of normal hepatic glutathione levels
Hepatic glutathione
  hepatic glutathione level relative to controls: about twice those of the controls
Hepatic glutathione; mice, 6.5 mmol/kilo intraperitoneally
  time of maximal effect on hepatic glutathione after injection: about 4 hours
5-oxo-L-prolinase [2]; compared with the natural substrate
  apparent Km value: somewhat lower than that found for the natural substrate
5-oxo-L-prolinase [2]
  Reaction on incubation with 5-oxo-L-prolinase: rapid formation of ADP and cysteine
5-oxo-L-prolinase [2]; substrate 2 mM
  Products Formed: ADP: 478 nmol and 499 nmol
5-oxo-L-prolinase [2]; substrate 2 mM, after conversion to cystine
  Products Formed: Amino Acid: 463 nmol
5-oxo-L-prolinase [2]; substrate 2 mM, determined after reduction with KBH4 and reaction with iodoacetamide
  Products Formed: Amino Acid: 466 nmol

From US4647571A, “Cysteine delivery composition” (Cornell Research Foundation, priority 1982, dated 1987)
